The values below come from ChEMBL document CHEMBL1201862, “PubChem BioAssay data set” (2004).

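In this assay, cells in 96-well plates receive the compound at five concentrations for 48 hours. Endpoints are linearly interpolated between the surrounding concentrations. GI50: concentration for 50% inhibition of growth.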 Activity calls are given as the source filed them. Rule as the data show it: active = GI50 up to about 1.1 µM and inactive = higher. Bounds are passed on as bounds.

Some test systems named below: SNB-75; UO-31; HOP-18; OVCAR-4; OVCAR-3; A498; UACC-257; IGROV-1; SK-MEL-5; HOP-92; SN12C; Malme-3M; HCC 2998; ACHN; U-251; CAKI-1; SNB-19; NCI/ADR-RES; PC-3; Hs-578T.
What all share (test): NCI anticancer screen, dose series, 48 h

With `CC1(O)CC2C(CC1SCCO)C2(C)C` (stereo not drawn), the GI50 in the assay on SNB-75, in the assay with UO-31, with HOP-18, with OVCAR-4, in the assay with OVCAR-3 and with A498 was > 100 µM (inactive) in each case. Moreover, the GI50 in the assay with UACC-257, with IGROV-1, with SK-MEL-5, in the assay with HOP-92, with SN12C and in the assay with Malme-3M was > 100 µM (inactive) each time. In addition, the GI50 in the assay with HCC 2998, with ACHN and with U-251 was > 100 µM (inactive) in each case.
Consider `N/N=C1/C(=O)N(c2ccc(Cl)cc2)C(=O)C(=O)C1c1nc2ccccc2s1` (stereo not drawn), for which the GI50 in the assay with SNB-75 is > 65.6 µM (inactive); with UO-31 it was > 100 µM (inactive); with HOP-18, > 100 µM (inactive); in the assay on OVCAR-4, > 100 µM (inactive); with OVCAR-3, > 100 µM (inactive); in the assay on A498 it was > 100 µM (inactive). In addition, the GI50 in the assay on CAKI-1 is > 68.2 µM (inactive); with SNB-19 it was > 100 µM (inactive); in the assay with UACC-257 it was > 100 µM (inactive); in the assay with IGROV-1, > 100 µM (inactive); in the assay with SK-MEL-5, > 100 µM (inactive); in the assay with HOP-92, > 100 µM (inactive). For the same molecule, the GI50 in the assay on SN12C, with Malme-3M, in the assay on HCC 2998, with ACHN and with U-251 was > 100 µM (inactive) each time.
In the case of `CC(=O)C1(O)Cc2c(O)c3c(c(O)c2C(OC2CC(N)C(O)C(C)O2)C1)C(=O)c1ccccc1C3=O` (stereo not drawn), the GI50 in the assay with SNB-75 was 0.0132 µM (active); in the assay with UO-31, 0.042 µM (active); with HOP-18, 0.01 µM (active); with OVCAR-4, 0.327 µM (active); in the assay with OVCAR-3 it was 0.178 µM (active); in the assay on A498, 0.0115 µM (active). The GI50 is 0.00836 µM (active) with CAKI-1; 0.0373 µM (active) in the assay with SNB-19; 0.297 µM (active) in the assay on NCI/ADR-RES; 0.121 µM (active) in the assay with UACC-257; 0.0243 µM (active) with IGROV-1; 0.247 µM (active) in the assay on PC-3. Further, the GI50 with SK-MEL-5 is 0.0241 µM (active); in the assay with Hs-578T it was 0.254 µM (active); with HOP-92, 0.187 µM (active); in the assay on SN12C, 0.0207 µM (active); in the assay with Malme-3M, 0.01 µM (active); with HCC 2998, 0.0385 µM (active). The GI50 is 0.00438 µM (active) with ACHN and 0.0255 µM (active) in the assay on U-251.
With `COC(=O)C1=C(C)N(NC(N)=O)C(C)(O)C12CCOC2=O` (stereo not drawn), the GI50 in the assay on UO-31, with HOP-18, in the assay on OVCAR-4, in the assay on OVCAR-3, in the assay with A498 and with CAKI-1 was > 100 µM (inactive) throughout. Also, the GI50 with SNB-19, with UACC-257, with IGROV-1, with HOP-92, in the assay with SN12C and with Malme-3M was > 100 µM (inactive) in each case. Moreover, the GI50 with HCC 2998 is < 0.01 µM (active); in the assay with ACHN, > 100 µM (inactive); with U-251, > 100 µM (inactive).
With `COc1ccccc1NC(=O)C1=C(C)NC(C)=C(C(=O)Nc2ccccc2OC)C1c1ccccc1F`, the GI50 is 18 µM (inactive) with SNB-75; 62.7 µM (inactive) in the assay with UO-31; > 100 µM (inactive) with HOP-18; > 100 µM (inactive) in the assay on OVCAR-4; > 100 µM (inactive) in the assay with OVCAR-3; > 100 µM (inactive) in the assay on A498. In addition, the GI50 in the assay on CAKI-1 is > 100 µM (inactive); with SNB-19 it was > 100 µM (inactive); in the assay on UACC-257 it was > 100 µM (inactive); in the assay on IGROV-1, > 100 µM (inactive); in the assay with SK-MEL-5 it was 41.6 µM (inactive); with HOP-92 it was 79.3 µM (inactive). Also, the GI50 in the assay with SN12C was > 100 µM (inactive); in the assay on Malme-3M, 63.1 µM (inactive); in the assay with HCC 2998, > 100 µM (inactive); with ACHN it was 51.6 µM (inactive); in the assay with U-251 it was 90.8 µM (inactive).
With `O=C(CN1CCCCC1)N1CCc2c([nH]c3ccccc23)C1c1cccnc1` (stereo not drawn), the GI50 is > 100 µM (inactive) in the assay on SNB-75; 48.8 µM (inactive) with UO-31; > 100 µM (inactive) in the assay on HOP-18; > 100 µM (inactive) in the assay on OVCAR-4; > 100 µM (inactive) in the assay on OVCAR-3; > 100 µM (inactive) in the assay with A498. Further, the GI50 with CAKI-1 was > 100 µM (inactive); in the assay with SNB-19 it was > 100 µM (inactive); in the assay with UACC-257, > 100 µM (inactive); in the assay on IGROV-1, > 100 µM (inactive); with SK-MEL-5, > 100 µM (inactive); in the assay with HOP-92, 34.6 µM (inactive). Further, the GI50 in the assay on SN12C, in the assay with HCC 2998, in the assay on ACHN and in the assay on U-251 was > 100 µM (inactive) throughout.
As for `CC(=O)NNc1nc(C)c(C(=O)NNC(=O)C(=O)Nc2ccc(C)c(C)c2)s1`, the GI50 with SNB-75 was > 100 µM (inactive); in the assay on UO-31, 74 µM (inactive); in the assay with HOP-18, > 100 µM (inactive); in the assay with OVCAR-4, 72.9 µM (inactive); in the assay on OVCAR-3 it was 21.3 µM (inactive); in the assay with A498 it was > 100 µM (inactive). The GI50 in the assay with CAKI-1, with SNB-19, with UACC-257, in the assay on IGROV-1, in the assay on SK-MEL-5 and in the assay on HOP-92 was > 100 µM (inactive) each time. Moreover, the GI50 is > 100 µM (inactive) with SN12C; > 100 µM (inactive) with Malme-3M; > 100 µM (inactive) in the assay on HCC 2998; > 100 µM (inactive) with ACHN; 96.4 µM (inactive) in the assay on U-251.
Consider `CC(C)=CC1CCc2ccccc2N1S(=O)(=O)c1ccc(C)cc1` (stereo not drawn), for which the GI50 with SNB-75 is 1.17 µM (inactive); with UO-31 it was 3.61 µM (inactive); in the assay with HOP-18, 4.19 µM (inactive); with OVCAR-4, 4.31 µM (inactive); with OVCAR-3, 0.865 µM (active); with A498, 1.61 µM (inactive). Moreover, the GI50 in the assay with SNB-19 is 3.46 µM (inactive); with UACC-257, 2.27 µM (inactive); in the assay with IGROV-1 it was 2.4 µM (inactive); in the assay on SK-MEL-5, 0.589 µM (active); in the assay with HOP-92 it was 0.433 µM (active); with SN12C it was 2.99 µM (inactive). For the same molecule, the GI50 in the assay with Malme-3M was 1.67 µM (inactive); with HCC 2998, 1.27 µM (inactive); in the assay on ACHN it was 3.31 µM (inactive); with U-251 it was 1.19 µM (inactive).
Consider `O=C(NP(=O)(N1CC1)N1CC1)c1cc(I)ccc1I` [DIIODBENZOTEPH], for which the GI50 with SNB-75 is 37.9 µM (inactive); in the assay with UO-31, 28.1 µM (inactive); in the assay on HOP-18, > 92.3 µM (inactive); with OVCAR-4, 77.3 µM (inactive); in the assay with OVCAR-3 it was 36.6 µM (inactive); in the assay with A498, 64.4 µM (inactive). Also, the GI50 was > 22.3 µM (inactive) with CAKI-1; 53.7 µM (inactive) in the assay on SNB-19; 23.3 µM (inactive) in the assay on NCI/ADR-RES; > 64.3 µM (inactive) in the assay with UACC-257; 40.6 µM (inactive) in the assay on IGROV-1; > 67.3 µM (inactive) in the assay with PC-3. Further, the GI50 in the assay with SK-MEL-5 is 43.1 µM (inactive); in the assay on Hs-578T, 98.9 µM (inactive); in the assay with HOP-92 it was 59.7 µM (inactive); in the assay with SN12C, 26.8 µM (inactive); in the assay on Malme-3M it was 50.4 µM (inactive); in the assay on HCC 2998 it was > 67.9 µM (inactive). Moreover, the GI50 was 6.05 µM (inactive) with ACHN and 24.6 µM (inactive) with U-251.
